What was measured:
[1] = system: Human immunodeficiency virus 1; experiment: Antiviral activity against drug-resistant HIV-1 harboring RT Y181C mutant infected in human MT4 cells assessed as protection against virus-induced cytopathicity measured after 5 days post-infection by MTT assay; type: functional, organism-based; conditions: Human immunodeficiency virus 1, MT4, 120 h
[2] = system: Human immunodeficiency virus 1; experiment: Antiviral activity against drug-resistant HIV-1 harboring RT L100I mutant infected in human MT4 cells assessed as protection against virus-induced cytopathicity measured after 5 days post-infection by MTT assay; type: functional, organism-based; conditions: Human immunodeficiency virus 1, MT4, 120 h
[3] = system: Human immunodeficiency virus 1; experiment: Antiviral activity against drug-resistant HIV-1 harboring RT Y188L mutant infected in human MT4 cells assessed as protection against virus-induced cytopathicity measured after 5 days post-infection by MTT assay; type: functional, organism-based; conditions: Human immunodeficiency virus 1, MT4, 120 h
[4] = system: Human immunodeficiency virus 1; experiment: Antiviral activity against wild-type HIV-1 IIIB infected in human MT4 cells assessed as protection against virus-induced cytopathicity measured after 5 days post-infection by MTT assay; type: functional, organism-based; conditions: Human immunodeficiency virus 1, IIIB, MT4, 120 h
[5] = Metabolic stability in human liver microsomes assessed as half life at 1 uM measured up to 45 mins by LC/MS/MS analysis; type: ADME, Microsome; conditions: for half-life at 1 µM: liver microsomes
[6] = system: Human immunodeficiency virus 1; experiment: Antiviral activity against drug-resistant HIV-1 harboring RT RES056 mutant infected in human MT4 cells assessed as protection against virus-induced cytopathicity measured after 5 days post-infection by MTT assay; type: functional, organism-based; conditions: Human immunodeficiency virus 1, MT4, 120 h
[7] = system: Human immunodeficiency virus 1; experiment: Antiviral activity against drug-resistant HIV-1 harboring RT K103N mutant infected in human MT4 cells assessed as protection against virus-induced cytopathicity measured after 5 days post-infection by MTT assay; type: functional, organism-based; conditions: Human immunodeficiency virus 1, MT4, 120 h
[8] = system: Human immunodeficiency virus 1; experiment: Antiviral activity against drug-resistant HIV-1 harboring RT E138K mutant infected in human MT4 cells assessed as protection against virus-induced cytopathicity measured after 5 days post-infection by MTT assay; type: functional, organism-based; conditions: Human immunodeficiency virus 1, MT4, 120 h
[9] = system: Human immunodeficiency virus 1; experiment: Antiviral activity against drug-resistant HIV-1 harboring RT F227L/V106A mutant infected in human MT4 cells assessed as protection against virus-induced cytopathicity measured after 5 days post-infection by MTT assay; type: functional, organism-based; conditions: Human immunodeficiency virus 1, MT4, 120 h
[10] = molecular target: Human immunodeficiency virus type 1 reverse transcriptase (Human immunodeficiency virus 1, UniProt Q72547); experiment: Inhibition of recombinant wild type HIV-1 reverse transcriptase incubated for 40 mins in presence of poly(rA) template/oligo(dT)16 primer by Pico-Green dye based analysis
[11] = Cytotoxicity against human MT4 cells assessed as reduction in cell viability by MTT assay; type: toxicity, cell-based
[12] = Selectivity index, ratio of CC50 for cytotoxicity against human MT4 cells to EC50 for antiviral activity against wild-type HIV-1 IIIB infected in human MT4 cells; type: toxicity, cell-based; conditions: read-out: Ratio CC50/EC50
[13] = Solubility of compound at pH 7; type: physicochemical; conditions: buffer
[14] = Stability in human plasma assessed as compound remaining at 1 uM measured immediately by LC-MS/MS analysis; type: ADME, cell-free; conditions: read-out: Stability
[15] = Stability in human plasma assessed as compound remaining at 1 uM measured after 3 hrs by LC-MS/MS analysis; type: ADME, cell-free; conditions: read-out: Stability
[16] = Metabolic stability in dog liver microsomes assessed as half life at 1 uM measured up to 45 mins by LC/MS/MS analysis; type: ADME, Canis lupus familiaris, Microsome; conditions: liver microsomes
[17] = Drug metabolism in rat liver microsomes assessed as metabolic fraction at 1 uM measured up to 45 mins by LC/MS/MS analysis; type: ADME, Microsome; conditions: 0.75 h
[18] = Drug metabolism in dog liver microsomes assessed as metabolic fraction at 1 uM measured up to 45 mins by LC/MS/MS analysis; type: ADME, Canis lupus familiaris, Microsome; conditions: liver microsomes, read-out: Fm
[19] = Metabolic stability in rat liver microsomes assessed as half life at 1 uM measured up to 45 mins by LC/MS/MS analysis; type: ADME, Microsome; conditions: 0.75 h
[20] = Drug metabolism in human liver microsomes assessed as metabolic fraction at 1 uM measured up to 45 mins by LC/MS/MS analysis; type: ADME, Microsome; conditions: liver microsomes, read-out: Fm
[21] = Protein binding in human plasma assessed as drug recovery rate at 1 uM incubated for 6 hrs; type: ADME, cell-free; conditions: read-out: Drug recovery

SMILES	EC50 [1] [nM]	EC50 [2] [nM]	EC50 [3] [nM]	EC50 [4] [nM]	half-life at 1 µM [5] [min]	EC50 [6] [nM]	EC50 [7] [nM]	EC50 [8] [nM]	EC50 [9] [nM]	IC50 [10] [nM]	CC50 [11] [nM]	further results
[2H]C([2H])([2H])c1cc(/C=C/C#N)cc(C)c1Nc1ccnc(Nc2ccc(C#N)cc2)n1	2.71	2.3	72.6	1.17	19.4	12.9	1.96	4.6	69.8	30	6560	–
[2H]C([2H])([2H])c1cc(-c2ccc(C#N)cc2)cc(C)c1Nc1ccnc(Nc2ccc(C#N)cc2)n1	6.14	2.74	57.5	2.5	16.6	58.6	3.81	8.64	626	380	5940	selectivity ratio [12]: 2370
[2H]C([2H])([2H])c1cc(-c2ccc(C#N)cc2)cc(C([2H])([2H])[2H])c1Nc1ccnc(Nc2ccc(C#N)cc2)n1	7.57	2.72	55.1	1.83	16.7	68.8	2.9	8.93	697	380	5980	selectivity ratio [12]: 3260
Cc1cc(C#N)cc(C)c1Oc1nc(Nc2ccc(C#N)cc2)nc(N)c1Br [ETRAVIRINE]	–	4.22	–	–	–	36.5	–	10.3	–	–	> 4600	solubility [13]: < 1 µg/mL
CC[C@H](C)C(=O)O[C@H]1C[C@@H](C)C=C2C=C[C@H](C)[C@H](CC[C@@H]3C[C@@H](O)CC(=O)O3)[C@H]21 [LOVASTATIN]	–	–	–	–	–	–	–	–	–	–	–	remaining at 0 h, 1 µM [14]: 100%; remaining at 3 h, 1 µM [15]: 33.3%
Cc1cc(/C=C/C#N)cc(C)c1Nc1ccnc(Nc2ccc(C#N)cc2)n1 [RILPIVIRINE]	2.66	2.05	54	1.27	16	12.4	0.89	3.14	50.8	20	6800	half-life at 1 µM [16]: 79.3 min; t1/2 ([5]; microsomes, 0.75 h, 1 µM): 16 min; Fm [17]: 13.3%; metabolised at 0.75 h, 1 µM [18]: 44.8%; t1/2 [19]: 7.3 min; metabolised at 0.75 h, 1 µM [20]: 13%
CC(=O)CC(c1ccccc1)c1c(O)c2ccccc2oc1=O (stereo not given) [WARFARIN]	–	–	–	–	–	–	–	–	–	–	–	recovery at 6 h, 1 µM [21]: 96.9%
